Assay results published in ChEMBL document CHEMBL1208756, “LuxR-dependent quorum sensing: computer aided discovery of new inhibitors structurally unrelated to N-acylhomoserine lactones” (Bioorg Med Chem Lett, 2010).
Activity calls are given as the source filed them. The rule behind the calls is not given here.

Columns and labels:
[1] = molecular target: T1, Transcriptional activator protein LuxR (Aliivibrio fischeri) (UniProt P12746); assay: Induction of LuxR-dependent quorum sensing in Vibrio fischeri assessed as induction of bioluminescence intensity up to 200 uM
T1 sequence (whole entry): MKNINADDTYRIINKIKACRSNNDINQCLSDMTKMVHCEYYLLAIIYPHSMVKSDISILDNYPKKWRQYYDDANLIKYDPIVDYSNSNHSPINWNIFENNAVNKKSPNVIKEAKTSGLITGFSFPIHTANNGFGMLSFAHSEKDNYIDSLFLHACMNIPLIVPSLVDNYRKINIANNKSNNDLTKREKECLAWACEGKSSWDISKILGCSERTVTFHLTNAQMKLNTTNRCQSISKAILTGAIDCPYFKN

[2] = molecular target: T2, Transcriptional activator protein LuxR (Aliivibrio fischeri, UniProt P12746); assay: Inhibition of LuxR-dependent quorum sensing in Vibrio fischeri assessed as reduction of 3-oxo-C6-HSL-induced bioluminescence intensity
T2 sequence (P12746 whole entry): T1 sequence (whole entry)

[3] = molecular target: T1, Transcriptional activator protein LuxR (Aliivibrio fischeri); assay: Inhibition of LuxR-dependent quorum sensing in Vibrio fischeri assessed as reduction of 3-oxo-C6-HSL-induced bioluminescence intensity at 20 uM
[4] = molecular target: T1, Transcriptional activator protein LuxR (Aliivibrio fischeri); assay: Inhibition of LuxR-dependent quorum sensing in Vibrio fischeri assessed as reduction of 3-oxo-C6-HSL-induced bioluminescence intensity at 40 uM

SMILES | Activity [1] | IC50 [2] [µM] | inhibition [3] [%] | inhibition [4] [%]
Clc1ccc(C(c2ccc(Cl)cc2)[n+]2ccn(CC(OCc3ccc(Cl)cc3Cl)c3ccc(Cl)cc3Cl)c2)cc1 (centres undefined) | inactive | – | – | –
Clc1ccc(C(c2ccc(Cl)cc2)n2cc[n+](CC(OCc3ccc(Cl)cc3Cl)c3ccc(Cl)cc3Cl)c2)cc1 (centres undefined) [CALMIDAZOLIUM CHLORIDE] | – | 7 | – | –
CC(NCCC(c1ccccc1)c1ccccc1)c1ccccc1 (centres undefined) [FENDILINE] | inactive | 91 | – | –
CN1CCC(=C2c3ccccc3Sc3ccccc32)CC1 [PIMETHIXENE] | inactive | 56 | – | –
CN[C@H]1CC[C@@H](c2ccc(Cl)c(Cl)c2)c2ccccc21 [SERTRALINE] | inactive | 27 | – | –
CC/C(=C(\c1ccccc1)c1ccc(OCCN(C)C)cc1)c1ccccc1 [TAMOXIFEN] | inactive | 40 | 73.6 | 53
CC(C)(C)c1ccc(C(O)CCCN2CCC(C(O)(c3ccccc3)c3ccccc3)CC2)cc1 (centres undefined) [TERFENADINE] | inactive | 92 | – | –
